# Patent US10035801B2, “Pyrazolo compounds and uses thereof” (CONSTELLATION PHARMACEUTICALS, INC., priority 2013, dated 2018)
# Target: T1, KDM5A (Homo sapiens, UniProt P29375)
# T1 construct: Full length KDM5A enzyme was expressed and purified inhouse; made in house
# Experiment: KDM5 enzyme assay, KDM5A HTRF (Example 463)
# Type: biochemical
# Details: compounds of Examples 1-432; read-out: Example 463 Assay KDM5A HTRF IC50
# Procedure: Full length KDM5A enzyme was expressed and purified inhouse. Biotin-H3K4me3 peptide was purchased from New England Biolabs. HTRF reagents (containing Eu-labeled H3K4me1-2 antibody, and streptavidin-XL665) were purchased from Cis-Bio International. Plates were read on an Envision multi-label plate reader Perkin Elmer).
# The HTRF assay mixture contained 2 nM full length KDM5A enzyme, 100 nM H3K4Me3 peptide substrate, 1 uM 2-OG, 100 uM Fe^2+, 500 uM ascorbate. 50 mM HEPES pH 7.0 buffer, 0.01% Triton-X 100, 2 mM DTT. […] The plates were incubated at room temperature for 60 minutes and then read in the Envision plate reader.
# T1 sequence (P29375 whole entry): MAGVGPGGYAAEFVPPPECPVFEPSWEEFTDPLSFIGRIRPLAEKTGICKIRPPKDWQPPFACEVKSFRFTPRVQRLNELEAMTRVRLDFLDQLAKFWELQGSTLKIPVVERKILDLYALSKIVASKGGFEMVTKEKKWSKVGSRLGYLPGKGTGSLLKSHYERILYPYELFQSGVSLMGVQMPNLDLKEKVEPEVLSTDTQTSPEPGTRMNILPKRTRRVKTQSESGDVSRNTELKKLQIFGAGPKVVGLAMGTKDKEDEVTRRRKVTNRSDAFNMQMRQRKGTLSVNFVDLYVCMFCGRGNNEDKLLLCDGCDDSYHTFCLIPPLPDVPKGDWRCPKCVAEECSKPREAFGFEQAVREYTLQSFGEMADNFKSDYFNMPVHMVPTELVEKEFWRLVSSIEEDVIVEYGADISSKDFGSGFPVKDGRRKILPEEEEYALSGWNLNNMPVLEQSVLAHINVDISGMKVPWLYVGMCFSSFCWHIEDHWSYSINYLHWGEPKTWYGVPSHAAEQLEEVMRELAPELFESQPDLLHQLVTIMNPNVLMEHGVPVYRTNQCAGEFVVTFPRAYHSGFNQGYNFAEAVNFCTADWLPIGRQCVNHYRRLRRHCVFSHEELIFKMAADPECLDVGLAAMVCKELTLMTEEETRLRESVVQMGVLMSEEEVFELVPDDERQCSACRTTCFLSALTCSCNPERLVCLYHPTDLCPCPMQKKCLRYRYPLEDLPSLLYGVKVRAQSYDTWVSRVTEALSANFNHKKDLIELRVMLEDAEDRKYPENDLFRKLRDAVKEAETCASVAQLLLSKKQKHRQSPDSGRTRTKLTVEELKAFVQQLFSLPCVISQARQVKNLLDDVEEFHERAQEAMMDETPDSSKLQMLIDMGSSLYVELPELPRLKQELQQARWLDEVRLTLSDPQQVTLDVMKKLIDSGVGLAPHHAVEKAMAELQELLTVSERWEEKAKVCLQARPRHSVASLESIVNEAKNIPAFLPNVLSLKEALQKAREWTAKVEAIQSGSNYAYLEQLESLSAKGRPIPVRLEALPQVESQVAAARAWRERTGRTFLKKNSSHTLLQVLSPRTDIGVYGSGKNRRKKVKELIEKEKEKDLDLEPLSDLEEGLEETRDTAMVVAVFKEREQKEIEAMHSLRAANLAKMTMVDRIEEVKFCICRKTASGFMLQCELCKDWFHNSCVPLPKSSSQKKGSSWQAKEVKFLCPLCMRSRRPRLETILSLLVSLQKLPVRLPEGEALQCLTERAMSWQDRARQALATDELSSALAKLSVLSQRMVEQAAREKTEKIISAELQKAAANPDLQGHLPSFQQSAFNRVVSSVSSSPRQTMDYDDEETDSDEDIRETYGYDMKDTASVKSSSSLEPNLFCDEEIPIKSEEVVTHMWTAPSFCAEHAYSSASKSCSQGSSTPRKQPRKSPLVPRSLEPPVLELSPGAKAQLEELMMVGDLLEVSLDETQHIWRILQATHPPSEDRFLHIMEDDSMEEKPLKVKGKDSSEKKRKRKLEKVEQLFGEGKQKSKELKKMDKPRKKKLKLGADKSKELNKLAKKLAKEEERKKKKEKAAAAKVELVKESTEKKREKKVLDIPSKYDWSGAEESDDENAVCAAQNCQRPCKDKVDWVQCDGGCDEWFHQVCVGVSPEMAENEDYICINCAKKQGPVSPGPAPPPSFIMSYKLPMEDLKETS
row,IC50 [nM],SMILES
1,35,CC(C)c1c(-c2cccc(C(=O)N3CCN(C)CC3)c2)[nH]c2c(C#N)cnn2c1=O [Compound 400]
2,39,CC(C)c1c(-c2cccc(C(C)(C)O)c2)[nH]c2c(C#N)cnn2c1=O [Compound 401]
3,58,Cc1nn(C(C)C)cc1-c1[nH]c2c(C#N)cnn2c(=O)c1C(C)C [Compound 402]
4,57,Cc1c(-c2[nH]c3c(C#N)cnn3c(=O)c2C(C)C)cnn1C(C)C [Compound 403]
5,18,C=CC(C)c1c(-c2ccccc2)[nH]c2c(C#N)cnn2c1=O (stereo not drawn) [Compound 404]
6,12,CC(C)c1c(-c2cc(C3CC3)n[nH]2)[nH]c2c(C#N)cnn2c1=O [Compound 405]
7,15,COC(=O)c1cc(-c2[nH]c3c(C#N)cnn3c(=O)c2C(C)C)c[nH]1 [Compound 406]
8,48,CC(C)c1c(-c2cc(C3CC3)nn2C(C)C)[nH]c2c(C#N)cnn2c1=O [Compound 407]
9,150,CC(C)c1c(-c2cc(C3CC3)n(C(C)C)n2)[nH]c2c(C#N)cnn2c1=O [Compound 408]
10,44,COC(=O)c1cc(-c2[nH]c3c(C#N)cnn3c(=O)c2C(C)C)cn1C(C)C [Compound 409]
11,39,CC(C)c1c(-c2cc(C(F)(F)F)nn2C)[nH]c2c(C#N)cnn2c1=O [Compound 410]
12,35,CC(C)c1c(-c2ccn(C(C)C)n2)[nH]c2c(C#N)cnn2c1=O [Compound 411]
13,46,CC(C)c1c(-c2cc(C3CC3)n(C3CCCC3)n2)[nH]c2c(C#N)cnn2c1=O [Compound 412]
14,110,CC(C)c1c(-c2cc(C3CC3)nn2C2CCCC2)[nH]c2c(C#N)cnn2c1=O [Compound 413]
15,14,CC(C)c1c(-c2ccn(C3CCCC3)n2)[nH]c2c(C#N)cnn2c1=O [Compound 414]
16,77,CC(C)c1c(-c2ccnn2C(C)C)[nH]c2c(C#N)cnn2c1=O [Compound 415]
17,48,CNC(=O)c1cc(-c2[nH]c3c(C#N)cnn3c(=O)c2C(C)C)cn1C(C)C [Compound 416]
18,31,CC(C)c1c(-c2cc(C(=O)N(C)C)n(C(C)C)c2)[nH]c2c(C#N)cnn2c1=O [Compound 417]
19,13,CC(C)c1c(-c2ccn(CCC3CC3)n2)[nH]c2c(C#N)cnn2c1=O [Compound 418]
20,88,CC(C)c1c(-c2ccnn2CCC2CC2)[nH]c2c(C#N)cnn2c1=O [Compound 419]
21,23,CCn1ccc(-c2[nH]c3c(C#N)cnn3c(=O)c2C(C)C)n1 [Compound 420]
22,19,CCc1c(-c2cccc(N3CCCC3=O)c2)[nH]c2c(C#N)cnn2c1=O [Compound 421]
23,29,CCc1c(-c2cccc(N3CCC(C)(C)C3=O)c2)[nH]c2c(C#N)cnn2c1=O [Compound 422]

row,IC50 [nM],SMILES
1,20,CCc1c(-c2cccc(N3CCC(c4ccccc4)C3=O)c2)[nH]c2c(C#N)cnn2c1=O (stereo not drawn) [Compound 423]
2,8,CC(C)c1c(-c2cccc(N3CCC(c4ccccc4)C3=O)c2)[nH]c2c(C#N)cnn2c1=O (stereo not drawn) [Compound 424]
3,16,C=CCc1c(-c2cnn(C(C)C)c2)[nH]c2c(C#N)cnn2c1=O [Compound 425]
4,23,CCc1c(-c2cccc(/C=C/c3ccccc3)c2)[nH]c2c(C#N)cnn2c1=O [Compound 426]
5,39,CC(C)c1c(-c2cccc(-c3cccc(C#N)c3)c2)[nH]c2c(C#N)cnn2c1=O [Compound 427]
6,14,CC(C)c1c(-c2cccc(-c3cccc(NS(C)(=O)=O)c3)c2)[nH]c2c(C#N)cnn2c1=O [Compound 428]
7,27,CC(C)c1c(-c2cccc(-c3ccc(NS(C)(=O)=O)cc3)c2)[nH]c2c(C#N)cnn2c1=O [Compound 429]
8,32,CNS(=O)(=O)c1ccc(-c2cccc(-c3[nH]c4c(C#N)cnn4c(=O)c3C(C)C)c2)cc1 [Compound 430]
9,21,CC(C)n1cc(-c2[nH]c3c(C#N)cnn3c(=O)c2C2CCC2)cn1 [Compound 431]
10,56,CC(C)n1cc(-c2[nH]c3c(C#N)cnn3c(=O)c2C2(C)CCC2)cn1 [Compound 432]
11,4.3,"CC(C)c1c(Cl)[nH]c2c(C#N)cnn2c1=O [Example 1, 5-chloro-6-isopropyl-7-oxo-4,7-dihydropyrazolo[1,5-a]pyrimidine-3-carbonitrile]"
12,3,"CCc1c(Cl)[nH]c2c(C#N)cnn2c1=O [Example 2, 5-chloro-6-ethyl-7-oxo-4,7-dihydropyrazolo[1,5-a]pyrimidine-3-carbonitrile]"
13,3.8,"CC(C)c1c(-c2ccoc2)[nH]c2c(C#N)cnn2c1=O [Example 3, 5-(furan-3-yl)-6-isopropyl-7-oxo-4,7-dihydropyrazolo[1,5-a]pyrimidine-3-carbonitrile]"
14,65,"CC(C)c1c(-c2ccoc2)n(C)c2c(C#N)cnn2c1=O [Example 4, 5-(furan-3-yl)-6-isopropyl-4-methyl-7-oxo-4,7-dihydropyrazolo[1,5-a]pyrimidine-3-carbonitrile]"
15,5.5,"CC(C)c1c(-c2cn[nH]c2)[nH]c2c(C#N)cnn2c1=O [Example 5, 6-Isopropyl-7-oxo-5-(1H-pyrazol-4-yl)-4,7-dihydropyrazolo[1,5-a]pyrimidine-3-carbonitrile]"
16,13,"CC(C)c1c(-c2cnn(CC3CC3)c2)[nH]c2c(C#N)cnn2c1=O [Example 6, 5-(1-(Cyclopropylmethyl)-1H-pyrazol-4-yl)-6-isopropyl-7-oxo-4,7-dihydropyrazolo[1,5-a]pyrimidine-3-carbonitrile]"
17,30,"CC(C)c1c(-c2cnn(C3(C)CC3)c2)[nH]c2c(C#N)cnn2c1=O [Example 7, 6-Isopropyl-5-(1-(1-methylcyclopropyl)-1H-pyrazol-4-yl)-7-oxo-4,7-dihydropyrazolo[1,5-a]pyrimidine-3-carbonitrile]"
18,22,"CC(C)c1c(-c2cn(C(C)C)nc2F)[nH]c2c(C#N)cnn2c1=O [Example 8, 5-(3-Fluoro-1-isopropyl-1H-pyrazol-4-yl)-6-isopropyl-7-oxo-4,7-dihydropyrazolo[1,5-a]pyrimidine-3-carbonitrile]"
19,40,"CC(C)c1c(-c2cnn(C(C)(C)c3ccccc3)c2)[nH]c2c(C#N)cnn2c1=O [Example 9, 6-Isopropyl-7-oxo-5-(1-(2-phenylpropan-2-yl)-1H-pyrazol-4-yl)-4,7-dihydropyrazolo[1,5-a]pyrimidine-3-carbonitrile]"
20,24,"CC(C)c1c(-c2cnn(-c3cccnc3)c2)[nH]c2c(C#N)cnn2c1=O [Example 10, 6-Isopropyl-7-oxo-5-(1-(pyridin-3-yl)-1H-pyrazol-4-yl)-4,7-dihydropyrazolo[1,5-a]pyrimidine-3-carbonitrile]"
21,14,"CC(C)c1c(-c2cnn(-c3ccncc3)c2)[nH]c2c(C#N)cnn2c1=O [Example 11, 6-Isopropyl-7-oxo-5-(1-(pyridin-4-yl)-1H-pyrazol-4-yl)-4,7-dihydropyrazolo[1,5-a]pyrimidine-3-carbonitrile]"
22,18,"CC(C)c1c(-c2cnn(-c3ccccn3)c2)[nH]c2c(C#N)cnn2c1=O [Example 12, 6-Isopropyl-7-oxo-5-(1-(pyridin-2-yl)-1H-pyrazol-4-yl)-4,7-dihydropyrazolo[1,5-a]pyrimidine-3-carbonitrile]"
